Data on two compounds can be found in ChEMBL document CHEMBL1159019, “A strategy for identifying novel, mechanistically unique inhibitors of topoisomerase I” (J Nat Prod, 1992).

Experiment [1] addresses T1, DNA topoisomerase 1 (Homo sapiens, UniProt P11387).
T1 sequence (P11387 whole entry): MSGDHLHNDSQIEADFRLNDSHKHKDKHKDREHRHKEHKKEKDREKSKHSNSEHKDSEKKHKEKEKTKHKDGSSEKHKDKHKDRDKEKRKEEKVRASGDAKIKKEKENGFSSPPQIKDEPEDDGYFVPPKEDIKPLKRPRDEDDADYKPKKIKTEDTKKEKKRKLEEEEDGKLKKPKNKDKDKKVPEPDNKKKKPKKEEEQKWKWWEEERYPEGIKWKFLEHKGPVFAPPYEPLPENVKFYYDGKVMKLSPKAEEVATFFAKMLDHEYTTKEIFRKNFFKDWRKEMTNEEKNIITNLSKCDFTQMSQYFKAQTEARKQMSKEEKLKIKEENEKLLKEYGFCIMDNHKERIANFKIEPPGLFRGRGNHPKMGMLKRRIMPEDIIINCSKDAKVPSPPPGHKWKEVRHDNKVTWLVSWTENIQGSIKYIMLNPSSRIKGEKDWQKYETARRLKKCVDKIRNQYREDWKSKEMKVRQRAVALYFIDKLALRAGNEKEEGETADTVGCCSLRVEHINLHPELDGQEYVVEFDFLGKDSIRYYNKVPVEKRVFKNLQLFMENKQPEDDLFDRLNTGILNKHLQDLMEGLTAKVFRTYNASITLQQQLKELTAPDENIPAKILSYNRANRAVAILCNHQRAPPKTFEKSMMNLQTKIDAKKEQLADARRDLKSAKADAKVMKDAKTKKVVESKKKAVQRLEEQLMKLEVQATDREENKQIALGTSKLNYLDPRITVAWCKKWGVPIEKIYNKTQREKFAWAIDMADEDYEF
As to the kind of experiment: Inhibition of human COLO201 cellular topoisomerase-1 mediated plasmid DNA cleavage by electrophoresis in presence of 70 units of enzyme.

Experiment [2] addresses T1, DNA topoisomerase 1. As to the kind of experiment: Inhibition of human COLO201 cellular topoisomerase-1 mediated plasmid DNA cleavage by electrophoresis in presence of 14 units of enzyme.

As for `O=C(O)C[C@@H]1C(=O)O[C@H]2[C@@H]3OC(=O)c4cc(O)c(O)c(O)c4-c4c(cc(O)c(O)c4O)C(=O)OC[C@H]2O[C@@H](OC(=O)c2cc(O)c(O)c(O)c2)[C@@H]3OC(=O)c2cc(O)c(O)c3c2[C@H]1[C@H](O)C(=O)O3` [CHEBULAGIC ACID], the half-inhibitory concentration (IC50) in experiment [1] was determined as 100 nM; in experiment [2], 50 nM.
With `O=C(O[C@@H]1O[C@@H]2COC(=O)c3cc(O)c(O)c(O)c3-c3c(cc(O)c(O)c3O)C(=O)O[C@H]([C@H]1O)[C@@H]2O)c1cc(O)c(O)c(O)c1` [CORILAGIN], the IC50 in experiment [1] turned out to be 40000 nM.

The term IC50 denotes the point on the concentration scale where inhibition reaches its midpoint.
